Paper PMC4519180, “Fluorescence Polarization Screening Assays for Small Molecule Allosteric Modulators of ABL Kinase Function” (PLoS ONE, 2015)

Columns and labels:
[1] = biological target: T1, wild type ABL kinase core (Homo sapiens, UniProt P00519, DEL15-56); assay: ADP Quest kinetic kinase assay, wild type ABL core; assay type: biochemical; conditions: 30 min pre-incubation; ATP and substrate at Km; mean ± SE, triplicate; read-out: EC50 for activation of ABL core
T1 construct: ABL core proteins (residues 1–531 with an internal deletion of residues 15–56); made in house; host or cells: Sf9 insect cells

ABL N32L WT protein = biological target: T2, ABL N32L WT protein (Homo sapiens, UniProt P00519, DEL15-56); assay: Differential scanning fluorimetry; assay type: binding; conditions: compound 100 μM, N32L 1 μM, vs DMSO
T2 construct: corresponding to residues 2–255 with an internal deletion of residues 15–56; Gly-His6 (GHHHHHH) (N); made in house; host or cells: E. coli Rosetta2(DE3)pLysS
Experimental: Hit compounds (100 μM) were pre-incubated with the ABL N32L WT protein (1 μM) for 30 minutes in bicine assay buffer (10 mM bicine, 150 mM NaCl, pH 8.0). SYPRO Orange (Sigma) was added at 5X final concentration and fluorimetry profiles were acquired with a StepOnePlus real-time quantitative PCR instrument (Applied Biosystems) and software (version 2.3). Assays were performed in duplicate in sealed MicroAmp Fast 96-well qPCR plates (Applied Biosystems), and control reactions without proteins were included to correct for background fluorescence. Assays were equilibrated at 25°C for 2 minutes, followed by an increase in temperature at the rate of 1% (1.6°C/min) to 99°C, with continuous data collection. Mean fluorescence intensities, after subtracting background fluorescence, were plotted against temperature. Non-linear regression analysis using the Boltzmann sigmoid function in GraphPad Prism 6 was used to determine the Tm values, the midpoint of the melt curve between the minimum and maximum fluorescence intensities.

[2] = biological target: T3, ABL N32L protein (Ncap-SH3-SH2-linker) (Homo sapiens, UniProt P00519, DEL15-56); assay: Fluorescence polarization (FP) assay, ABL N32L protein with p41 probe peptide; assay type: binding
T3 construct: corresponding to residues 2–255 with an internal deletion of residues 15–56; Gly-His6 (GHHHHHH) (N); made in house; host or cells: E. coli Rosetta2(DE3)pLysS
Experimental: (§1) Fluorescence Polarization (FP) experiments were performed in quadruplicate in low volume black 384 well plates with a non-binding surface (Corning; catalog # 3676). Peptides and proteins were added to each well in FP assay buffer (20 mM Tris-HCl, pH 8.3) for a final assay volume of 20 μL and mixed by shaking for 5 min at room temperature. The FP signal in millipolarization (mP) units was measured at an excitation wavelength of 485 nm and emission wavelength of 515 nm in a SpectraMax M5 microplate reader (Molecular Devices) using the Softmax Pro software (version 5.4.1). Each plate was read three times and the values were averaged prior to analysis. Raw fluorescence intensity was also read at the same wavelengths for each assay.
A collection of 1200 FDA-approved small molecules (Prestwick Chemical, Inc.) was used in a pilot screen with the FP assay. Each library compound was screened at 10 μM and a final DMSO concentration of 1%. Compounds were added to 384-well assay plates first, followed by a pre-mixed complex of the ABL N32L protein (25 μg) and the p41 probe peptide (50 nM). Each plate also contained twenty-eight wells of the wild type N32L protein plus p41 probe and DMSO as positive controls as well as twenty-eight wells of mutant ABL N32L-W118A protein plus p41 probe peptide and DMSO as negative controls. Each plate was mixed on the shaker for 5 min, read three consecutive times, and the average FP signal for each well was calculated. To identify potential hit compounds, three measures were used: (i) average FP signal; (ii) control normalized percent inhibition, in which the FP signal with each compound was normalized to the mean FP signal of the positive and negative plate controls according to the formula: [(sample FP–mean FPWT) / (mean FPW118A –mean FPWT) x 100] [22, 23]; (iii) Z score, a statistical measure of variation of the mean sample FP signal that is independent of plate controls, calculated according to the formula: [(sample FP–mean FPsamples) / standard deviationsamples] [22, 23]. […]

[3] = tested on: wild type ABL core expressed in 293T cells; assay: ABL core autophosphorylation in transfected 293T cells (immunoblot); assay type: cell-based, human; conditions: for Effect on ABL phosphorylation (pY412, pY245, pY89), compound alone: compound 142 1–10 μM or DPH 10 μM
Experimental: ABL core proteins were expressed in human 293T cells and analyzed for kinase activity as described elsewhere. Briefly, cells were grown overnight in 60 mm plates, transfected with an expression vector for the wild type ABL core, and treated with compounds 2 h post- transfection. Cells were lysed by sonication 24 h later, and cell lysates clarified by centrifugation. ABL was immunoprecipitated via the C-terminal His-tag, resolved by SDS-PAGE, and transferred to nitrocellulose membranes for immunoblot analysis with antibodies to the ABL protein and the three autophosphorylation sites: pTyr412 (activation loop), pTyr245 (SH2-kinase linker), and pTyr89 (SH3 domain).

ABL SH3 domain = biological target: T4, ABL SH3 domain (Homo sapiens, UniProt P00519); assay: FP assay with isolated ABL SH3 domain and p41 probe; assay type: binding; conditions: significant inhibition at 3 and 10 μM
T4 construct: we performed FP assays with the N32L protein as well as the isolated ABL SH3 domain; made in house
Experimental: as §1

isolated ABL SH3 domain = biological target: T5, isolated ABL SH3 domain (Homo sapiens, UniProt P00519); assay: Surface plasmon resonance, isolated SH3 domain; assay type: binding; conditions: SPR, data not shown
T5 construct: we performed FP assays with the N32L protein as well as the isolated ABL SH3 domain; made in house
Experimental: (§2) SPR analysis was performed on a BIAcore T100 instrument (GE Healthcare) using four-channel CM5 biosensor chips at 25°C. Recombinant purified ABL proteins were covalently attached to the CM5 chip via standard amine coupling chemistry. Compound 142 (dipyridamole; Prestwick Chemical) was prepared in 20 mM Tris-HCl, pH 8.3, 150 mM NaCl and 0.1% DMSO and flowed past the immobilized ABL protein channel and a reference channel on the biosensor at a flow rate of 50 μL/min for 3 min over a range of concentrations. The initial binding reaction was followed by dissociation for 5 min, and the chip surface was regenerated using 20 mM Tris-HCl, pH 8.3, 150 mM NaCl, 0.1% DMSO, 0.05% Tween 20 and 1 mM DTT at a flow rate of 50 μL/min for 10 min. Sensorgrams were recorded in triplicate, corrected for buffer effects, and fitted with the 1:1 Langmuir binding model using the BIAevaluation software suite version 2.0.4 (GE Healthcare).

[4] = tested on: ABL core with high-affinity linker (HAL); assay: ADP Quest kinetic kinase assay, high-affinity linker ABL core; assay type: biochemical, human; conditions: 10 μM; ATP and substrate at Km
Experimental: The ADP Quest assay (DiscoverRx), which fluorimetrically measures kinase activity as the production of ADP, was used to determine ABL kinase reaction velocities. Assays were performed in quadruplicate in black 384 well plates (Corning #3571) in reaction volumes of 10 μL/well. […] The […] substrate peptide for ABL (EAIYAAPFAKKK) as well as the SFK substrate peptide ([…]) were dissolved in the ADP Quest assay buffer (15 mM HEPES, pH 7.4, 20 mM NaCl, 1 mM EGTA, 0.02% Tween-20, 10 mM MgCl2, 0.1 mg/ml bovine γ-globulins), while ATP stocks were prepared in 10 mM Tris-HCl (pH 7.0). Each kinase reaction was initiated by the addition of ATP and read at 5 min intervals for 3 h in a SpectraMax M5 Microplate reader (Molecular Devices). […] The resulting progress curves were analyzed according to the method of Moroco et al.. Briefly, raw fluorescence data were corrected for non-enzymatic ADP production (no kinase or substrate control) and kinase auto-phosphorylation (rate observed in the absence of substrate), and converted to pmol ADP produced using an ADP standard curve generated under the same reaction conditions. The resulting values were normalized to the amount of kinase present in each reaction, and plotted against time. […] Substrate and ATP Km values were determined by non-linear regression analysis using the Michaelis-Menten equation (GraphPad Prism 6).

[5] = biological target: T1, wild type ABL kinase core; assay: ADP Quest kinetic kinase assay, wild type ABL core; assay type: biochemical; conditions: for Activation constant Kact: concentration giving half-maximum velocity; for Activation constant Kact / Vmax: mean ± SE; for Vmax: maximal reaction velocity with activator; for Vmax/Kact: overall enhancement of catalytic efficiency
Experimental: The ADP Quest assay (DiscoverRx), which fluorimetrically measures kinase activity as the production of ADP, was used to determine ABL kinase reaction velocities. Assays were performed in quadruplicate in black 384 well plates (Corning #3571) in reaction volumes of 10 μL/well. Recombinant kinase protein concentrations were fixed at 40 ng/well for the wild type ABL core, 9 ng/well for the high affinity linker ABL core, and 250 ng/well for the SRC family kinase HCK. The Tyr2 substrate peptide for ABL (EAIYAAPFAKKK) as well as the SFK substrate peptide (YIYGSFK) were dissolved in the ADP Quest assay buffer (15 mM HEPES, pH 7.4, 20 mM NaCl, 1 mM EGTA, 0.02% Tween-20, 10 mM MgCl2, 0.1 mg/ml bovine γ-globulins), while ATP stocks were prepared in 10 mM Tris-HCl (pH 7.0). Each kinase reaction was initiated by the addition of ATP and read at 5 min intervals for 3 h in a SpectraMax M5 Microplate reader (Molecular Devices). To determine the substrate Km for ABL kinases, the ATP concentration was fixed at 50 μM and the substrate peptide was serially diluted from 0.2–200 μM. For ABL kinase ATP Km determination, the substrate concentration was fixed at the respective substrate Km for each of the kinases, and the ATP concentration was titrated over the range of 0.2–200 μM. The resulting progress curves were analyzed according to the method of Moroco et al.. Briefly, raw fluorescence data were corrected for non-enzymatic ADP production (no kinase or substrate control) and kinase auto-phosphorylation (rate observed in the absence of substrate), and converted to pmol ADP produced using an ADP standard curve generated under the same reaction conditions. The resulting values were normalized to the amount of kinase present in each reaction, and plotted against time. The linear portion of each progress curve was fit by regression analysis to determine the reaction velocity. Substrate and ATP Km values were determined by non-linear regression analysis using the Michaelis-Menten equation (GraphPad Prism 6).
Half-maximal effective concentrations (EC50) and activation constants (Kact) were determined for the ABL kinase core by both dipyridamole and the known ABL activator, DPH (5-(1,3-diaryl-1H-pyrazol-4-yl)hydantoin; Sigma-Aldrich). The kinase was pre-incubated with each compound (10 nM to 100 μM) for 30 min at room temperature, followed by kinase assay with the substrate and ATP concentrations fixed at their respective Km values. The rate of each reaction was plotted against compound concentration, and analyzed by non-linear regression analysis (GraphPad Prism 6) to determine the EC50 value. To determine the activation constant Kact, the basal rate of kinase activity was subtracted from the rates of reaction in the presence of each compound concentration, and plotted as a function of compound concentration. The resulting curves obeyed saturation kinetics and were best-fit by the following equation [19]: Va= Vact[L]/(Kact+[L]) where Va is the reaction velocity in the presence of each activator concentration, Vact is the maximal reaction velocity, L is the activator concentration, and Kact is the activator concentration that yields half-maximal reaction velocity.

SRC-family kinase HCK = biological target: T6, SRC-family kinase HCK (Homo sapiens, UniProt P08631, Q523E/Q524E/Q525I); assay: ADP Quest kinetic kinase assay, HCK; assay type: biochemical; conditions: 1 μM; recombinant near-full-length downregulated HCK
T6 construct: made in house; host or cells: Sf9 insect cells
Experimental: The ADP Quest assay (DiscoverRx), which fluorimetrically measures kinase activity as the production of ADP, was used to determine ABL kinase reaction velocities. Assays were performed in quadruplicate in black 384 well plates (Corning #3571) in reaction volumes of 10 μL/well. Recombinant kinase protein concentrations were fixed at 40 ng/well for the wild type ABL core, 9 ng/well for the high affinity linker ABL core, and 250 ng/well for the SRC family kinase HCK. […] Each kinase reaction was initiated by the addition of ATP and read at 5 min intervals for 3 h in a SpectraMax M5 Microplate reader (Molecular Devices). […] The resulting progress curves were analyzed according to the method of Moroco et al.. Briefly, raw fluorescence data were corrected for non-enzymatic ADP production (no kinase or substrate control) and kinase auto-phosphorylation (rate observed in the absence of substrate), and converted to pmol ADP produced using an ADP standard curve generated under the same reaction conditions. […] Substrate and ATP Km values were determined by non-linear regression analysis using the Michaelis-Menten equation (GraphPad Prism 6).

ABL N32L protein = biological target: T7, ABL N32L protein (Homo sapiens, UniProt P00519, DEL15-56); assay: Surface plasmon resonance, immobilized ABL N32L; assay type: binding
T7 construct: corresponding to residues 2–255 with an internal deletion of residues 15–56; Gly-His6 (GHHHHHH) (N); made in house; host or cells: E. coli Rosetta2(DE3)pLysS
Experimental: as §2

T3 sequence (P00519 with tags, fused parts or gaps isoform P00519-2 DEL15-56): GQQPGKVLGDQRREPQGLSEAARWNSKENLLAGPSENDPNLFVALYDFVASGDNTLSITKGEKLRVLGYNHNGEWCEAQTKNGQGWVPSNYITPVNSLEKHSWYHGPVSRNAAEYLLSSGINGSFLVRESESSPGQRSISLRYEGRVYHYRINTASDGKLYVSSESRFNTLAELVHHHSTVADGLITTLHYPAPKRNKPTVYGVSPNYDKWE
T1 sequence (P00519 with tags, fused parts or gaps isoform P00519-2 DEL15-56): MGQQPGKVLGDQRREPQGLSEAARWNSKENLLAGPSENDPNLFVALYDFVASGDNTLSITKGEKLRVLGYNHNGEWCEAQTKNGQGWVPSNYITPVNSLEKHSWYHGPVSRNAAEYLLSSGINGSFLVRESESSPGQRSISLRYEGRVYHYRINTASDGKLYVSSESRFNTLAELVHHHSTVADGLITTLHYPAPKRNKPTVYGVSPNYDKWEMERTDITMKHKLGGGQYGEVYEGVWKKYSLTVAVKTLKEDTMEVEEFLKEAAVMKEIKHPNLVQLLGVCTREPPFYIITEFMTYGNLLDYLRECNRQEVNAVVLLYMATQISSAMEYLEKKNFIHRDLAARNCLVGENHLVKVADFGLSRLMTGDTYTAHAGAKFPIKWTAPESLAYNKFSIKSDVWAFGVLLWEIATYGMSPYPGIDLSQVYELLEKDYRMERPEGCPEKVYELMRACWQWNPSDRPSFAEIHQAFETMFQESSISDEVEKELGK
T6 sequence (P08631 78-526 Q523E/Q524E/Q525I limits assumed): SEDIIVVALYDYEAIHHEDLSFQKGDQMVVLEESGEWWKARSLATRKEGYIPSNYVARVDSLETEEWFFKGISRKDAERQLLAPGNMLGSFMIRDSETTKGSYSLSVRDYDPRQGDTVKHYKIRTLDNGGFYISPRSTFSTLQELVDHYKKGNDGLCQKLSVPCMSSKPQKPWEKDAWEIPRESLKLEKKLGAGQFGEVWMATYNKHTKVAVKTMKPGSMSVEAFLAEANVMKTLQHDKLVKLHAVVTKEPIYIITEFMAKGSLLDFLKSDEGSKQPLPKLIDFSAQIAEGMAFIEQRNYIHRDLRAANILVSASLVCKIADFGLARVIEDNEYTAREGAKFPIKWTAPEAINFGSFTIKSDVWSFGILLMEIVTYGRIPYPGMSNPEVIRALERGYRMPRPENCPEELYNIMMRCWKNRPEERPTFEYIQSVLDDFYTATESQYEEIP
T5 sequence (P00519 61-121 limits assumed): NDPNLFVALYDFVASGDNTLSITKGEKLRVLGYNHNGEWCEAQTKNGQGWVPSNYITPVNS
T4 sequence (P00519 61-121 limits assumed): as above

Molecule	EC50 [1] [µM]	Decrease in Tm (ABL N32L WT protein)	Inhibition of FP signal relative to DMSO controls (retest) ([2]; 10 μM, quadruplicate, screening assay conditions, p < 0.05)	FP signal with ABL N32L protein over compound concentration range ([2]; significant inhibition at 3 and 10 μM)	Effect on ABL phosphorylation (pY412, pY245, pY89), compound alone [3]	Effect on ABL phosphorylation (pY412, pY245, pY89) in the presence of DPH ([3]; compound 142 1–10 μM plus DPH 10 μM)	FP signal with ABL SH3 protein over compound concentration range (ABL SH3 domain)	Kd (isolated ABL SH3 domain) [µM]	Effect on kinase activity of ABL core with HAL substitution [4]	Stimulation of wild type ABL kinase activity relative to DMSO control ([5]; 10 μM, ATP and substrate at Km)	Activation constant Kact [5] [µM]	Vmax [5] [µM]	Vmax/Kact [5]	Effect on HCK reaction velocity (SRC-family kinase HCK)	kon (ABL N32L protein; 1:1 Langmuir binding model, 25°C, read-out: Association rate constant) [M⁻¹ s⁻¹]	koff (ABL N32L protein; 1:1 Langmuir binding model, 25°C, read-out: Dissociation rate constant) [s⁻¹]	Kd (ABL N32L protein; SPR, ABL N32L protein, read-out: Equilibrium dissociation constant (KD), ratio kd/ka) [µM]	Effect of unlabeled peptide on FP signal (competition) ([2]; p41 probe 50 nM, N32L 20 μg/well, unlabeled peptide 2.5 to 100 μM)
OCCN(CCO)c1nc(N2CCCCC2)c2nc(N(CCO)CCO)nc(N3CCCCC3)c2n1 [compound 142, dipyridamole]	0.63 ± 0.07	more than 2 °C	significant inhibition	concentration-dependent decrease	did not affect phosphorylation	remarkable enhancement of phosphorylation	concentration-dependent decrease	30	did not affect	about 40%	0.4 ± 0.02	3.2 ± 0.28	8.00	no effect	3870 ± 590000	0.027 ± 7.2e-05	6.9	–
QKEGERALPSIP [non-specific peptide]	–	–	–	–	–	–	–	–	–	–	–	–	–	–	–	–	–	no effect
5-(1,3-diaryl-1H-pyrazol-4-yl)hydantoin [DPH]	1.11 ± 0.5	–	–	–	very small effect	–	–	–	did not activate	–	1.02 ± 0.07	1.90 ± 0.4	1.86	–	–	–	–	–
